Assay results published in article PMC6544261, “A novel thermostable and halophilic thioredoxin reductase from the Red Sea Atlantis II hot brine pool” (PLoS ONE, 2019).

Target: T1, ATII-TrxR (Cupriavidus basilensis, UniProt A0A643FQQ5)
T1 construct: codon-optimised synthetic gene in pET-28a(+), His-tagged, E. coli BL21(DE3), HisTrap; dimer
T1 sequence (A0A643FQQ5 1-552): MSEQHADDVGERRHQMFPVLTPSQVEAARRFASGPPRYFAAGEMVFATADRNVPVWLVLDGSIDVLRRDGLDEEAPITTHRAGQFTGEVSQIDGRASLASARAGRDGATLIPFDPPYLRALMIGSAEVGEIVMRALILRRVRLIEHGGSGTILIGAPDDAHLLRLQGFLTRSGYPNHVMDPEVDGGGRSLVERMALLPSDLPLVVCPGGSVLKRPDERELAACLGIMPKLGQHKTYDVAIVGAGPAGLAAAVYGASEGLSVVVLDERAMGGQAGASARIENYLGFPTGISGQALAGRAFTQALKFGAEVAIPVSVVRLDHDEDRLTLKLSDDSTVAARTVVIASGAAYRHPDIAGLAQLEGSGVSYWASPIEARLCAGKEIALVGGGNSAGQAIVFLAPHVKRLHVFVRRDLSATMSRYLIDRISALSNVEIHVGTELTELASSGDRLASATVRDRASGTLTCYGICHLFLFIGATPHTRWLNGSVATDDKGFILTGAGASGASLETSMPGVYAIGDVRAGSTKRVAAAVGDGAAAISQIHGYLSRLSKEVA
Test: flavin absorbance at […] nm, co-elution of […] and […] nm peaks
Assay type: binding
Conditions: cofactor bound to enzyme as purified

Cc1cc2nc3c(=O)[nH]c(=O)nc-3n(C[C@H](O)[C@H](O)[C@H](O)COP(=O)(O)OP(=O)(O)OC[C@H]3O[C@@H](n4cnc5c(N)ncnc54)[C@H](O)[C@@H]3O)c2cc1C [FAD]
mol FAD/mol native enzyme: The binding of ATII-TrxR protein to the cofactor FAD was confirmed
